In patent US7074789B2, “Kinase inhibitors” (Amgen Inc., priority 1999, dated 2006):
Read-outs that look alike come from different tables or passages of the source.

Columns and labels:
Format in all cases: biochemical
Lck = target: T1, Lck (Homo sapiens, UniProt P06239); assay: Kinase inhibition assay (33P transfer), Lck; conditions: for IC50: read-out: Lck-1
T1 construct: Kinases are expressed as either kinase domains or full length constructs; made in house
Procedure, shortened: (§1)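 Filterless plate radiometric format: immobilized poly(Glu,Tyr) 4:1 or poly(Arg,Ser) 3:1, 33P-labelled ATP, tagged recombinant kinase (some with regulatory partners). Incorporated label counted after phosphoric acid wash.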

Zap-70 = target: T2, Zap-70 (Homo sapiens, UniProt P43403); assay: Kinase inhibition assay (33P transfer), Zap-70; conditions: for IC50: read-out: Zap-1
T2 construct: Kinases are expressed as either kinase domains or full length constructs; made in house
T2 sequence (P43403 1-619): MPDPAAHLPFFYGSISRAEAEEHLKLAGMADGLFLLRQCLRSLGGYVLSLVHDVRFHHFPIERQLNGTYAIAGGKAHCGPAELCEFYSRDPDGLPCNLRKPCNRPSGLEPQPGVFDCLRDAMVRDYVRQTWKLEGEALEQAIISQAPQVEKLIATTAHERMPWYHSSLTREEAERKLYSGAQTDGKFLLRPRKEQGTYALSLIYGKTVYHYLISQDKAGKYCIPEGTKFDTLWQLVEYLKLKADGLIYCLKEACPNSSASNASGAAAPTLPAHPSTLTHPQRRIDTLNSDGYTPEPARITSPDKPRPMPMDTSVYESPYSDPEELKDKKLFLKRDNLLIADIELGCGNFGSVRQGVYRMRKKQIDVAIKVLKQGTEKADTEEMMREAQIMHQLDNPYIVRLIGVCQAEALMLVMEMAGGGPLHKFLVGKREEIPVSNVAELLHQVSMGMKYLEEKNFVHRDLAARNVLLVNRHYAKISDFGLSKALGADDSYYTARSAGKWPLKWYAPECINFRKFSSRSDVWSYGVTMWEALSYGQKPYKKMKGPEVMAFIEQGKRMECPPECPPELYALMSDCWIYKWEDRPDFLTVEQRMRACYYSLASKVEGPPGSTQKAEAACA
Procedure, shortened: as §1

Itk = target: T3, Itk (Homo sapiens, UniProt Q08881); assay: Kinase inhibition assay (33P transfer), Itk; conditions: for IC50: read-out: Itk-1
T3 construct: Kinases are expressed as either kinase domains or full length constructs; made in house
T3 sequence (Q08881 1-620): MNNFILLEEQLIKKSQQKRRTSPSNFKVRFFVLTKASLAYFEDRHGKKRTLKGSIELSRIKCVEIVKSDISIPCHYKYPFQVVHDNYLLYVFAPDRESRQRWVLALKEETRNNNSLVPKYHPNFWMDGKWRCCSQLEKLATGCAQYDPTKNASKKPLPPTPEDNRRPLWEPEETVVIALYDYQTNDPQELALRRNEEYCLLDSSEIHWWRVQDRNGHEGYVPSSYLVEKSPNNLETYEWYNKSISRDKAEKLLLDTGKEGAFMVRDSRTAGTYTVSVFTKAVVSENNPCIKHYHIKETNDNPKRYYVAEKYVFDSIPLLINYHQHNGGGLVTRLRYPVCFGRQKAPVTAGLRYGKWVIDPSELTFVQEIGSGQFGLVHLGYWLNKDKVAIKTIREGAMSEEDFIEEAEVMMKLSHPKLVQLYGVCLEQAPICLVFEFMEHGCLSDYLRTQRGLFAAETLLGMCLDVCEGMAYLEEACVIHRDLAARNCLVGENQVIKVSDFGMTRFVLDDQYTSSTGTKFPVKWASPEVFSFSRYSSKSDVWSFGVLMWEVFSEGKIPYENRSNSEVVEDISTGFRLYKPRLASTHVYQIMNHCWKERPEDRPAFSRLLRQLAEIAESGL
Procedure, shortened: (§2)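 Read-out: scintillation counts of 33P moved from ATP onto synthetic peptide polymer coated on the well surface, after washing with 0.5% phosphoric acid. Enzymes were tagged (GST or polyHistidine) and came from bacterial or insect-cell expression. IC50 marks 50% loss of incorporated label.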

EGFR = target: T4, EGFR (Homo sapiens, UniProt P00533); assay: Kinase inhibition assay (33P transfer), EGFR; conditions: Table 2, kinase inhibition class; for IC50: read-out: EGFR-1
T4 construct: Kinases are expressed as either kinase domains or full length constructs; made in house
Procedure, shortened: as §2

Kdr = target: T5, Kdr (Homo sapiens, UniProt P35968); assay: Kinase inhibition assay (33P transfer), Kdr; conditions: for IC50: read-out: KDR-1
T5 construct: Kinases are expressed as either kinase domains or full length constructs; made in house
Procedure, shortened: as §1

c-Met = target: T6, c-Met (Homo sapiens, UniProt P08581); assay: Kinase inhibition assay (33P transfer), c-Met; conditions: Table 2, kinase inhibition class; for IC50: read-out: Met-1
T6 construct: Kinases are expressed as either kinase domains or full length constructs; made in house
Procedure, shortened: as §2

AKT = target: T7, AKT (Homo sapiens, UniProt Q9Y243); assay: Kinase inhibition assay (33P transfer), AKT; conditions: Table 2, kinase inhibition class; for IC50: read-out: AKT3-1
T7 construct: Kinases are expressed as either kinase domains or full length constructs; made in house
Procedure, shortened: as §1

Tek = target: T8, Tek (Homo sapiens, UniProt Q02763); assay: Kinase inhibition assay (33P transfer), Tek; conditions: read-out: Tek-1
T8 construct: Kinases are expressed as either kinase domains or full length constructs; made in house
Text: The inhibitor compounds described herein are screened in the following manner. Kinases suitable for use in the following protocol to determine kinase activity of the compounds described herein include, -but are not limited to: Lck, Lyn, Src, Fyn, Syk, Zap-70, Itk, Tec, Btk, EGFR, ErbB2, Kdr, Flt-1, Flt-3, Tek, c-Met, InsR, and AKT.
Kinases are expressed as either kinase domains or full length constructs fused to glutathione S-transferase (GST) or polyHistidine tagged fusion proteins in either E. colior Baculovirus-High Five expression systems. They are purified to near homogeneity by affinity chromatography essentially as previously described (Lehr et al., 1996; Gish et al., 1995). In some instances, kinases are co-expressed or mixed with purified or partially purified regulatory polypeptides prior to measurement of activity.
Kinase activity and inhibition are measured essentially by established protocols (Braunwalder et al., 1996). Briefly, The transfer of ^33PO4 from ATP to the synthetic substrates poly(Glu, Tyr) 4:1 or poly(Arg, Ser) 3:1 attached to the bioactive surface of microtiter plates serves as the basis to evaluate enzyme activity. After an incubation period, the amount of phosphate transferred is measured by first washing the plate with 0.5% phosphoric acid, adding liquid scintillant, and then counting in a liquid scintillation detector. The IC50 is determined by the concentration of compound that causes a 50% reduction in the amount of […] incorporated onto the substrate bound to the plate.

T4 sequence (P00533 25-1210, species assumed): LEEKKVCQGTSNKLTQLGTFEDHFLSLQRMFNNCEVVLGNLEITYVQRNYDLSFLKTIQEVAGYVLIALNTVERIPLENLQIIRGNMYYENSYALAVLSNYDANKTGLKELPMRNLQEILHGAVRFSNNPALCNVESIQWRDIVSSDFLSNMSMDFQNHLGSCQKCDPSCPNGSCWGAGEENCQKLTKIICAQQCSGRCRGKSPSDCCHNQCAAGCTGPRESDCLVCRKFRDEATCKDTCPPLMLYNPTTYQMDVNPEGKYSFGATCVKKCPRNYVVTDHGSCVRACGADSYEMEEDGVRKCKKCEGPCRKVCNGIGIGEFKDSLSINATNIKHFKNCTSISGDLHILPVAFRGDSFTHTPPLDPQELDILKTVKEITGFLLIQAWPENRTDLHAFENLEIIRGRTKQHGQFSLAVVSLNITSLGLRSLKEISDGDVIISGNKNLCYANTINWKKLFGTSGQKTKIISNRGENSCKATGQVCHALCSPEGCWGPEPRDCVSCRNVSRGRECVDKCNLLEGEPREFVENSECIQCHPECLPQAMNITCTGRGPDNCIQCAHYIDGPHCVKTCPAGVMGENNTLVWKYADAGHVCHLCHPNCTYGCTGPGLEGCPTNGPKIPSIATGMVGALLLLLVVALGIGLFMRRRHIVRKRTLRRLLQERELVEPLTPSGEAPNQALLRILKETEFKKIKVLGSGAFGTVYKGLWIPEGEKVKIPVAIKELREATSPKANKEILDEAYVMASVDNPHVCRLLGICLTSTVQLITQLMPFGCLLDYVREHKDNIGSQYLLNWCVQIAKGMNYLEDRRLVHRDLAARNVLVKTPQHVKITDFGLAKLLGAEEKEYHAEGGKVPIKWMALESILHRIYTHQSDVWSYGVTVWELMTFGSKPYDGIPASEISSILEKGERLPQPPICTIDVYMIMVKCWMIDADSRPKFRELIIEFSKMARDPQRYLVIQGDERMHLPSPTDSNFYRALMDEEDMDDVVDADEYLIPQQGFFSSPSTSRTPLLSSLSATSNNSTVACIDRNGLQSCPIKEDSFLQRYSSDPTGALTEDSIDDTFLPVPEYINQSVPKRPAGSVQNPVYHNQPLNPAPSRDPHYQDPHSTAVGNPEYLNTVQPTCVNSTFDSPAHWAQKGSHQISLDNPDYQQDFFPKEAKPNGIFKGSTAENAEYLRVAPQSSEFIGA
T1 sequence (P06239 whole entry, species assumed, the tested form may be a part): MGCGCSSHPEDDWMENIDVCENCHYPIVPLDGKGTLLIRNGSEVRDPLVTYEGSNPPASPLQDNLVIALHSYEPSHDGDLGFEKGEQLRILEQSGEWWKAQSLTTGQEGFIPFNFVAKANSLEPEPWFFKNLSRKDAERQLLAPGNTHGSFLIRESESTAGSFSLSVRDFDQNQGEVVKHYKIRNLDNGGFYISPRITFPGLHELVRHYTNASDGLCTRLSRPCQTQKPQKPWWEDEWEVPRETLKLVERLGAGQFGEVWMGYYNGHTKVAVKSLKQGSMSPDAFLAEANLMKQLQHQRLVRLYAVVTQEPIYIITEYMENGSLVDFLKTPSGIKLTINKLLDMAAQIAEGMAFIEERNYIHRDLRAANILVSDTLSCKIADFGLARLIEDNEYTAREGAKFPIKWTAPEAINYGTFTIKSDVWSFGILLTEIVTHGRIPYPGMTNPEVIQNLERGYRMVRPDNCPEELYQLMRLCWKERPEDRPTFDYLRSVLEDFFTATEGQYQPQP
T5 sequence (P35968 20-1356, species assumed): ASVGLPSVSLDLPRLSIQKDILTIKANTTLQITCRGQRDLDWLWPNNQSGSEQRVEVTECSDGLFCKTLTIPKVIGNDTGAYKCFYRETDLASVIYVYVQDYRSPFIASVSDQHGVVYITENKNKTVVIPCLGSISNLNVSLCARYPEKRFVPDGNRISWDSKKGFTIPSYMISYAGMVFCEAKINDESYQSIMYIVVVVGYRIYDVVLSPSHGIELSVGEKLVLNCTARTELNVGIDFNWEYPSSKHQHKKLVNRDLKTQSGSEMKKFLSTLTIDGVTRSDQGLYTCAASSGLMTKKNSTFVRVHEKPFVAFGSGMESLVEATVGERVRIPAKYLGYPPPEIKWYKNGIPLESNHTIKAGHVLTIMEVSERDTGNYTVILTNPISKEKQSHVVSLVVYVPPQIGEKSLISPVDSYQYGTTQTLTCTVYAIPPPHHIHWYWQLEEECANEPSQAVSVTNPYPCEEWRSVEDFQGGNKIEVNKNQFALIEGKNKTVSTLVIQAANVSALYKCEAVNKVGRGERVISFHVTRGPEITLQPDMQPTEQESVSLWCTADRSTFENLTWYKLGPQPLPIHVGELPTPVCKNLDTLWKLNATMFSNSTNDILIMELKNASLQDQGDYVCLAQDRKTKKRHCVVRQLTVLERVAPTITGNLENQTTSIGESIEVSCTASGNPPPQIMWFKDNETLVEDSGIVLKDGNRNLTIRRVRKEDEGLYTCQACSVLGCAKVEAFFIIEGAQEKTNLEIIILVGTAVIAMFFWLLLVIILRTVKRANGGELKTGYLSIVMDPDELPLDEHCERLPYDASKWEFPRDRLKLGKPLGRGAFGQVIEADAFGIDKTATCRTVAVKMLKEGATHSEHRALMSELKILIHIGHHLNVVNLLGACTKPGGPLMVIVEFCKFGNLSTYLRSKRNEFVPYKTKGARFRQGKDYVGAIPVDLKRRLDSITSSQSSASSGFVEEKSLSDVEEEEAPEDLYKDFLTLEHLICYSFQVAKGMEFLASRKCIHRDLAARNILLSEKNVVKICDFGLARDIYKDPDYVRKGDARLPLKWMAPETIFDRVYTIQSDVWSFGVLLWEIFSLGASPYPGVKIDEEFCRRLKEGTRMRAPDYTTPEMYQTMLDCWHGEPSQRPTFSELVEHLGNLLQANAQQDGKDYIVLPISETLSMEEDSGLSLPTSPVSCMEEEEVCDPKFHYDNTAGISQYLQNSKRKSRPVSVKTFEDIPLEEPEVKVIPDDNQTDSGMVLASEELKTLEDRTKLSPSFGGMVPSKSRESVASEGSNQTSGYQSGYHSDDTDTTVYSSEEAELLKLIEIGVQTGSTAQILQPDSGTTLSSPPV
T7 sequence (Q9Y243 whole entry, the tested form may be a part): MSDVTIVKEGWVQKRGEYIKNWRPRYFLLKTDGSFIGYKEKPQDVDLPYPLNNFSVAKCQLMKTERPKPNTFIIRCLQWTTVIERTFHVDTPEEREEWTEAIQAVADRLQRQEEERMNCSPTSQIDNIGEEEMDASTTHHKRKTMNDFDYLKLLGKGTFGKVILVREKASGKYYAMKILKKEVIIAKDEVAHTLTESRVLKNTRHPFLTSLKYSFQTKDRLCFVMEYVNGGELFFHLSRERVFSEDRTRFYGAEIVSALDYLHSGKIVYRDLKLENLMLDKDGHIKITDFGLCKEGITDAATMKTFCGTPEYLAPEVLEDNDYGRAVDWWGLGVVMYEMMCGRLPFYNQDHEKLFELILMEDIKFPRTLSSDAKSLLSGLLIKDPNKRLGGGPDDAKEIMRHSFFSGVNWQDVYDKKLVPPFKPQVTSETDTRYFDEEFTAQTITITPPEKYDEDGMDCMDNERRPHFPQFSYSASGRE
T6 sequence (P08581 25-1390): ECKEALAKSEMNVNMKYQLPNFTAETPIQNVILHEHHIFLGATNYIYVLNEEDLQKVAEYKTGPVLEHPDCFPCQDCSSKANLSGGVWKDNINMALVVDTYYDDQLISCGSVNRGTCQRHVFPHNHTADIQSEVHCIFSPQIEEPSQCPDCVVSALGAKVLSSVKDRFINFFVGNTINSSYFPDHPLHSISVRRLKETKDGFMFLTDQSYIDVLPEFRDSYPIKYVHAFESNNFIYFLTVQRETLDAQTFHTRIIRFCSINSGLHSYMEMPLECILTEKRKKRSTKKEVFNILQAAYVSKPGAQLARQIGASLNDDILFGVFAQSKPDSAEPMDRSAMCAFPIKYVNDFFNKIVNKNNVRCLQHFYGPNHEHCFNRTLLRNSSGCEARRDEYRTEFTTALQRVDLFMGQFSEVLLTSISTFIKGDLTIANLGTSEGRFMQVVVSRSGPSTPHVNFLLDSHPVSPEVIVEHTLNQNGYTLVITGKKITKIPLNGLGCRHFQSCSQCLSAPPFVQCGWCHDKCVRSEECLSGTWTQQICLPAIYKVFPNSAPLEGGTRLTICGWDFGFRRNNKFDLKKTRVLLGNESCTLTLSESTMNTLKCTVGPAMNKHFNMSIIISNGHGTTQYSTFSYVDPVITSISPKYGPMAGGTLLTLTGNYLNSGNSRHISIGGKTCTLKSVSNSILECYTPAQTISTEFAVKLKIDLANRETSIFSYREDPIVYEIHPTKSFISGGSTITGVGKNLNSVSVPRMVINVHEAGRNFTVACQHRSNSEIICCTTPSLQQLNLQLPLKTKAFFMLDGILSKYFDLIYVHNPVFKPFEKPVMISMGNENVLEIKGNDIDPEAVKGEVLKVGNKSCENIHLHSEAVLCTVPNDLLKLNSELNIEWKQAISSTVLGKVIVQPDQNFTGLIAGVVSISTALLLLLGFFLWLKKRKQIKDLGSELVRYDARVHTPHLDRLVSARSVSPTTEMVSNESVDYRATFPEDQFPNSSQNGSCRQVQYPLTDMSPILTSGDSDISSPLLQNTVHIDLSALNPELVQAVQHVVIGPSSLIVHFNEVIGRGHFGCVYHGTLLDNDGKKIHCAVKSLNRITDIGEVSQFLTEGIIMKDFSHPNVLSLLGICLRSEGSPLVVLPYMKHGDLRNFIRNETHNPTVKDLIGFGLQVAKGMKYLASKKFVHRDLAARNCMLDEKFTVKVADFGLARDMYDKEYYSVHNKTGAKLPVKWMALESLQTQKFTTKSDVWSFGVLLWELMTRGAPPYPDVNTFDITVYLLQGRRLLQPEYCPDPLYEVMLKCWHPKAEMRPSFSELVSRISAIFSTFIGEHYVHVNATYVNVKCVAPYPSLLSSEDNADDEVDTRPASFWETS

For `Clc1ncnc(Nc2cc(-c3ccccc3)n[nH]2)n1` [Compound 976], the IC50 (Lck) was greater than 16.5 µM, the IC50 (Zap-70) was 8.8 to 12.8 µM and the IC50 (Itk) was greater than 16.5 µM. The IC50 (EGFR) was greater than 16.5 µM, the IC50 (Kdr) was greater than 16.5 µM and the IC50 (c-Met) was greater than 16.5 µM. It also gave an IC50 (AKT) greater than 16.5 µM.
In the case of `CC(C)(C)OC(=O)NCc1cccc(Nc2ncnc(Nc3cc(C(C)(C)C)n[nH]3)n2)c1` [Compound 987], the IC50 (Lck) is reported as 0.912 to 5.47 µM, the IC50 (Zap-70) is reported as greater than 10.3 µM and the IC50 (Itk) is reported as greater than 10.3 µM. The IC50 (EGFR) was greater than 10.3 µM, the IC50 (Kdr) was greater than 10.3 µM and the IC50 (c-Met) was greater than 10.3 µM. It also gave an IC50 (AKT) greater than 10.3 µM.
`COc1cc(Nc2ncnc(Nc3[nH]ncc3-c3cccc(Cl)c3)n2)cc(OC)c1OC` [Compound 999] showed an IC50 (Lck) greater than 9.91 µM, an IC50 (Zap-70) greater than 9.91 µM and an IC50 (Itk) greater than 9.91 µM. It also gave an IC50 (EGFR) greater than 9.91 µM, an IC50 (Kdr) greater than 9.91 µM and an IC50 (c-Met) greater than 9.91 µM. For the same molecule, the IC50 (AKT) was greater than 9.91 µM.
For `Nc1ncnc(Nc2ccc(C3CCCCC3)cc2)n1` [Compound 1021], the IC50 (Lck; Table 3) was greater than 16.7 µM, the IC50 (Zap-70; Table 3) was greater than 16.7 µM and the IC50 (Itk; Table 3) was greater than 16.7 µM. For the same molecule, the IC50 (EGFR) was greater than 16.7 µM, the IC50 (Kdr; Table 3) was greater than 16.7 µM and the IC50 (Tek) was greater than 16.7 µM. It also gave an IC50 (c-Met) greater than 16.7 µM.
For `COc1cc(Nc2ncnc(N)n2)cc(OC)c1OC` [Compound 1024, N-(3,4,5-trimethoxy-phenyl)-[1,3,5]triazine-2,4-diamine], the IC50 (Lck; Table 3) was greater than 16.2 µM, the IC50 (Zap-70; Table 3) was greater than 16.2 µM and the IC50 (Itk; Table 3) was greater than 16.2 µM. The IC50 (EGFR) was greater than 16.2 µM, the IC50 (Kdr; Table 3) was greater than 16.2 µM and the IC50 (Tek) was greater than 16.2 µM. It also gave an IC50 (c-Met) greater than 16.2 µM.
Molecule `COC(=O)n1c(=O)n(-c2ncnc(Nc3cc(OC)c(OC)c(OC)c3)n2)c2ccccc21` [Compound 1032] has an IC50 (Lck) greater than 9.95 µM, an IC50 (Zap-70) greater than 9.95 µM and an IC50 (Itk) greater than 9.95 µM. It also gave an IC50 (EGFR) greater than 9.95 µM, an IC50 (Kdr) of 0.884 to 5.3 µM and an IC50 (c-Met) greater than 9.95 µM. The IC50 (AKT) was greater than 9.95 µM.
`COc1cc(Nc2ncnc(-n3c(=O)[nH]c4ccccc43)n2)cc(OCCN2CCOCC2)c1OC` [Compound 1039] was tested, and the IC50 (Lck) was 0.81 to 4.86 µM, the IC50 (Zap-70) was greater than 9.12 µM and the IC50 (Itk) was greater than 9.12 µM. It also gave an IC50 (EGFR) greater than 9.12 µM, an IC50 (Kdr) of less than 0.81 µM and an IC50 (c-Met) greater than 9.12 µM. The IC50 (AKT) was greater than 9.12 µM.
In the case of `COc1cc(Nc2ncnc(-c3cccnc3NCCN)n2)cc(OC)c1OC` [Compound 1074], the Lck-1 (Lck) is reported as “C (C>2.4 and <3.5 ug/mL)”, the Zap-1 (Zap-70) is reported as “E (E>4.5 ug/mL)” and the Itk-1 (Itk) is reported as “E (E>4.5 ug/mL)”. The EGFR-1 (EGFR) was “E (E>4.5 ug/mL)”, the KDR-1 (Kdr) was “B (B>0.4 and <2.4 ug/mL)” and the Met-1 (c-Met) was “E (E>4.5 ug/mL)”. For the same molecule, the AKT3-1 (AKT) was “E (E>4.5 ug/mL)”.
With `COc1cc(Nc2ncnc(-c3cccnc3NCCN3CCCCC3)n2)cc(OC)c1OC` [Compound 1079] the IC50 (Lck) was greater than 9.67 µM, the IC50 (Zap-70) was greater than 9.67 µM and the IC50 (Itk) was greater than 9.67 µM. For the same molecule, the IC50 (EGFR) was greater than 9.67 µM, the IC50 (Kdr) was greater than 9.67 µM and the IC50 (c-Met) was greater than 9.67 µM. The IC50 (AKT) was greater than 9.67 µM.
For `COc1cc(Nc2ncnc(-c3cccnc3NCc3ccccn3)n2)cc(OC)c1OC` [Compound 1080], the IC50 (Lck) was 5.39 to 7.86 µM, the IC50 (Zap-70) was greater than 10.1 µM and the IC50 (Itk) was greater than 10.1 µM. It also gave an IC50 (EGFR) greater than 10.1 µM, an IC50 (Kdr) of less than 0.898 µM and an IC50 (c-Met) greater than 10.1 µM. For the same molecule, the IC50 (AKT) was greater than 10.1 µM.
Molecule `C=CCNc1ncccc1-c1ncnc(Nc2ccc(C(N)=O)cc2)n1` [Compound 1081] has an IC50 (Lck) of 1.15 to 6.91 µM, an IC50 (Zap-70) greater than 13 µM and an IC50 (Itk) greater than 13 µM. The IC50 (EGFR) was greater than 13 µM, the IC50 (Kdr) was less than 1.15 µM and the IC50 (c-Met) was greater than 13 µM. The IC50 (AKT) was greater than 13 µM.
